Here are results for one cell line from the supplement of paper PMC10307832.

Common to all, as to assay: relative viability (nuclei count vs DMSO), 5 days (fraction); higher = more cells survive
Compound in test [1]: COc1cc(-c2nn([C@H]3CC[C@H](N4CCN(C(C)=O)CC4)CC3)c3ncnc(N)c23)ccc1NC(=O)c1cc2ccccc2n1C + COc1cccc2cc(-c3nc([C@H]4CC[C@H](C(=O)O)CC4)n4ncnc(N)c34)[nH]c12 [OSI-027] (partner 0.5 µM)
An outline of the steps: (§1)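 Dosing by pin tool came one day after lung cancer cell lines were seeded in 1536-well plates, using either one drug or a fixed anchor-drug dose plus five library-drug doses (not always all listed) in √10 steps. After 5 days, nuclei were counted on 4× images. Relative viability is treated-well nuclei count divided by vehicle-well nuclei count, and values are medians of duplicate plates.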

Compound in test [2]: COc1cc(-c2nn([C@H]3CC[C@H](N4CCN(C(C)=O)CC4)CC3)c3ncnc(N)c23)ccc1NC(=O)c1cc2ccccc2n1C + Nc1ncn([C@H]2C[C@H](O)[C@@H](CO)O2)c(=O)n1 [Decitabine] (partner 2 µM)
In outline: as §1

Compound in test [3]: COc1cc(-c2nn([C@H]3CC[C@H](N4CCN(C(C)=O)CC4)CC3)c3ncnc(N)c23)ccc1NC(=O)c1cc2ccccc2n1C + COc1cc2c(Oc3ccc(NC(=O)C4(C(=O)Nc5ccc(F)cc5)CC4)cc3F)ccnc2cc1OCCCN1CCOCC1 [Foretinib] (partner 0.25 µM)
In outline: as §1

Compound in test [4]: CO[C@@H]1[C@H](N(C)C(=O)c2ccccc2)C[C@H]2O[C@]1(C)n1c3ccccc3c3c4c(c5c6ccccc6n2c5c31)C(=O)NC4 [Midostaurin] + CC(C)C[C@H](NC(=O)[C@H](Cc1ccccc1)NC(=O)c1cnccn1)B(O)O [Bortezomib] (partner 0.002 µM)
An outline of the steps:
as §1

Compound in test [5]: CO[C@@H]1[C@H](N(C)C(=O)c2ccccc2)C[C@H]2O[C@]1(C)n1c3ccccc3c3c4c(c5c6ccccc6n2c5c31)C(=O)NC4 [Midostaurin] + O=C(CCCCCCC(=O)Nc1ccccc1)NO [Vorinostat] (partner 1 µM)
An outline of the steps:
as §1

On to UMC-11, for which the relative viability in test [1] (first compound 0.0128 µM) amounted to 0.531; in test [1] (first compound 0.04048 µM), 0.463; in test [1] (first compound 0.128 µM) it was 0.474; in test [1] (first compound 1.28 µM), 0.414; in test [2] (first compound 0.0128 µM), 0.706; in test [2] (first compound 0.04048 µM) it was 0.606. Also, the relative viability in test [2] (first compound 0.128 µM) is 0.745; in test [2] (first compound 1.28 µM), 0.543; in test [3] (first compound 0.0128 µM), 0.967; in test [3] (first compound 0.04048 µM) it was 1.07; in test [3] (first compound 0.128 µM) it was 0.943; in test [3] (first compound 1.28 µM), 0.806. The relative viability in test [4] (first compound 0.01 µM) turned out to be 0.734; in test [4] (first compound 0.03162 µM), 0.591; in test [4] (first compound 0.1 µM), 0.508; in test [4] (first compound 0.3162 µM) it was 0.34; in test [5] (first compound 0.01 µM) it was 0.424; in test [5] (first compound 0.03162 µM), 0.445. In addition, the results for the relative viability in test [5] (first compound 0.1 µM) and in test [5] (first compound 0.3162 µM) were 0.242 and 0.187, respectively.
